As to `Cn1c(-c2ccccc2)cnc1S`, the melting point was in the range of 180 to 182 °C.

Consider `CN(C)S(=O)(=O)c1cccc(C(=O)O)c1`, for which the melting point is 146 to 150 °C. Under `Nc1ccc(S(=O)(=O)Nc2ccc([N+](=O)[O-])cc2)cc1` stands 162 to 164 °C. Compound `Cc1cc(CO)c(C)n1-c1ccccc1` yielded a melting point of 77 to 79 °C.

As for `Fc1nc(C(F)(F)F)ccc1I`, the melting point lay within 48 to 50 °C. Under `COc1ccc2cc(C(=O)O)c(C)nc2c1` stands 209 to 211 °C; under `NCc1ccc(CN2CCC(O)CC2)cc1`, 128 to 130 °C; under `O=C(NC1CCCCCC1)c1ccco1`, 99 to 101 °C. For `COc1ccc(F)cc1C(F)(F)C(=O)O` the value was 125 to 127 °C; for `CC(C)Oc1ccc(S(=O)(=O)Cl)c2ccccc12`, 93 to 95 °C; for `O=C(O)CN1C(=O)c2ccccc2C(F)(F)C1=O`, 203 to 205 °C. Compound `COC(=O)C(=O)CC(=O)c1cccc(Cl)c1` yielded a melting point of 29 to 31 °C.

In turn, `CC(C)C(Cl)C(=O)O` (configuration not stated) came in with a melting point of 33 to 35 °C.

Compound `Nc1ncc(Br)nc1C(=O)O` displayed a melting point of 172 to 174 °C.

`NS(=O)(=O)c1ccc(C(=O)O)cc1F` gave a melting point of 274 to 276 °C. `COc1ccc(CCNC(=O)C(C)Cl)cc1OC` (configuration not stated) displayed a melting point of 76 to 78 °C.

In turn, `COc1cccc2c1OCC(C(=O)O)=C2` returned a melting point of 239 to 241 °C. `Cc1cc2cc[nH]c(=O)c2n1C` displayed a melting point of 224 to 226 °C. Compound `Nc1ccc(Cl)cc1C(=O)c1ccc[nH]1` returned a melting point of 149 to 151 °C. Under `Cc1ccc(-c2nc(N)sc2-c2ccc(C)cc2)cc1` stands 153 to 155 °C; under `O=[N+]([O-])c1cc(Br)ccc1S`, 123 to 125 °C; under `OCc1ncn(-c2ccccc2)n1`, 109 to 111 °C. As for `CCOC(=O)/C(C#N)=C\Nc1cc(Cl)ccc1F`, the melting point is 147 to 149 °C.

Turning to `Cc1cc(C(=O)CCl)c(F)cc1F`, the melting point is 80 to 82 °C. On to `O=C(O)Cc1ccc(NC(=O)c2ccccc2I)cc1`, for which the melting point fell in the range of 226 to 228 °C. `Oc1ccc(-c2ccccc2)nc1`: the melting point is 174 to 176 °C.

`CCC(Nc1ccccc1)C(N)=O` (configuration not stated) yielded a melting point of 122 to 124 °C.

In turn, `Cc1ccc(-n2c(S)nnc2-c2ccncc2)cc1C` registered a melting point of 260 to 262 °C. The compound `CN(C)c1ccc(CCC(=O)O)cc1` came in with a melting point of 105 to 107 °C. The compound `O=C(Nc1cccnc1)C(Cl)C(=O)c1ccccc1` (configuration not stated) yielded a melting point of 86 to 90 °C. Take `COC(=O)c1n[nH]c(=O)c2noc(C)c12`: the melting point lay in the range of 215 to 217 °C.

As for `O=c1ccc(C(F)(F)F)n[nH]1`, the melting point fell in the range of 125 to 127 °C. For `CC(C)Cn1cnc2c1c(=O)[nH]c(=O)n2CC(C)C` the value was 158 to 160 °C; for `N#Cc1ccc(OCc2cccc(C(=O)O)c2)cc1`, 221 to 223 °C; for `Cc1ccc(C)c(N2C(=O)C=CC2=O)c1`, 79 to 81 °C. Under `CCOC(=O)c1ncccc1N` stands 127 to 129 °C; under `N#CCCn1cc(C(=O)O)c(-c2ccc([N+](=O)[O-])cc2)n1`, 220 to 222 °C. Regarding `Nc1ccc(C(=O)O)c(I)c1`, the melting point fell in the range of 160 to 162 °C. For `CC(C)c1cc(=O)oc2cc(O)ccc12` the value was 77 to 79 °C; for `NC(=O)C1CNc2ccccc21` (configuration not stated), 150 to 152 °C. `N#Cc1ccc(OCCO)cc1` gave a melting point of 85 to 87 °C. As for `COC(=O)c1ccc(Cl)nc1C`, the melting point was 30 to 32 °C. For `O=C(O)Cc1cc(=O)n(C2CCS(=O)(=O)C2)[nH]1` (configuration not stated) the value was 168 to 170 °C; for `COc1ccc(-n2c(C)cc(C(=O)O)c2C)cc1`, 232 to 234 °C.

On to `CC(C)(C)c1ccc(Oc2ccc(C(=O)O)cc2F)cc1`, for which the melting point is 171 to 173 °C. For `O=C(CCl)c1ccc(F)c(F)c1` the value was 37 to 39 °C; for `CCc1ncc(C(=O)O)s1`, 151 to 153 °C; for `O=C(O)CCn1ccccc1=O`, 146 to 148 °C. For `Nc1ccc(F)c(S(=O)(=O)NC2CC2)c1` the value was 107 to 109 °C.

Consider `C=CCNC(=O)c1nc(C(=O)O)cs1`, for which the melting point is 147 to 149 °C. Under `O=C1Nc2c(ccc(Cl)c2F)C1=O` stands 200 to 202 °C; under `Nc1ccccc1Oc1ccccc1N`, 61 to 64 °C; under `Nc1ccccc1S(=O)(=O)C(F)F`, 65 to 67 °C. Under `CNS(=O)(=O)c1ccc(/C=C/C(=O)O)cc1` stands 259 to 261 °C; under `Cc1cc(C)c2c(n1)NCC(=O)N2`, 209 to 211 °C.

As to `O=C(O)c1cnoc1C1CC1`, the melting point fell in the range of 159 to 161 °C. The compound `CCOC(C)C(N)=NO` (configuration not stated) came in with a melting point of 88 to 90 °C.

As to `Cc1cccc(Cl)c1NC(=O)CBr`, the melting point lay within 139 to 141 °C. `O=C(O)c1cccnc1SCc1ccc(Br)cc1` came in with a melting point of 236 to 238 °C. Compound `COc1ccnc(NCc2cccc(C(=O)O)c2)n1` returned a melting point of 219 to 221 °C. The compound `O=C1CCC2(CC1)C(=O)Nc1ccccc12` returned a melting point of 198 to 200 °C.

The compound `CC(NC(=O)c1ccoc1)C(=O)O` (configuration not stated) gave a melting point of 166 to 168 °C.

`Cc1nc(-c2nnc[nH]2)sc1C(=O)O` displayed a melting point of 286 to 288 °C.

In turn, `Cc1ncc([N+](=O)[O-])cc1C(=O)O` came in with a melting point of 210 to 214 °C. In turn, `CC(Cl)C(=O)Nc1ccccc1Br` (configuration not stated) returned a melting point of 75 to 77 °C. For `CCOC(=O)c1c(N)c(C#N)cn1CCOC` the value was 99 to 101 °C; for `O=[N+]([O-])c1n[nH]cc1S(=O)(=O)Cl`, 154 to 156 °C; for `CCc1ccc(C=CS(=O)(=O)Cl)cc1`, 66 to 68 °C. For `CC1(C)C(=O)NC(=O)N1CC#N` the value was 147 to 149 °C; for `CC(=O)c1cnn(-c2ccccn2)c1C`, 75 to 77 °C; for `O=S1(=O)CCCN1Cc1ccc(Br)cc1`, 58 to 60 °C. Under `CC(C)(C)C1CCc2[nH]c3ccc(Cl)cc3c2C1` (configuration not stated) stands 107 to 109 °C; under `C=CCNS(=O)(=O)c1ccccc1F`, 100 to 102 °C. As to `CC(Cl)C(=O)N1c2ccccc2CC1C` (configuration not stated), the melting point is 135 to 137 °C.

For the compound `CC1CC1c1cc(N)on1` (configuration not stated), the melting point was in the range of 55 to 57 °C.

The compound `O=c1[nH]c2cc([N+](=O)[O-])ccc2o1` displayed a melting point of 229 to 231 °C. In turn, `COc1cc(C)c(C(C)=O)cc1C` returned a melting point of 74 to 76 °C. In the case of `COCCOc1ccc(/C(C)=N\O)cc1OC`, the melting point lay in the range of 124 to 126 °C.

Regarding `CC(=O)N1c2ccc(S(=O)(=O)Cl)cc2CC1C` (configuration not stated), the melting point lay within 112 to 114 °C. Under `O=C(O)/C=C/c1ccc(OC(F)F)cc1OC(F)F` stands 106 to 108 °C; under `CCc1cccc(CC)c1-n1ccnc1`, 74 to 76 °C; under `O=Cc1cn(Cc2ccccc2)nc1-c1ccccc1`, 85 to 87 °C. In the case of `O=C1C(Br)CCN1c1ccccc1F` (configuration not stated), the melting point lay within 76 to 78 °C. For `Cc1cccc(CNC(=O)CCl)c1` the value was 71 to 73 °C; for `Cn1c(O)nnc1S`, 216 to 218 °C.

The compound `O=C(c1ccccn1)c1cc2ccccc2o1` returned a melting point of 96 to 98 °C. In the case of `COC(=O)CNc1ccc(Br)cn1`, the melting point was 105 to 107 °C.

Usually melting point stands for the temperature, or range, at which the solid turns liquid.

Values taken from a melting point compilation (Tetko et al.).
